Results reported in patent publication US11186577B2, “Vasopressin receptor antagonists and products and methods related thereto” (BlackThorn Therapeutics, Inc., priority 2017, dated 2021).
pIC50: −log10 of the molar value.

Legend:
MDR1 (P-gp) = assay: in vitro; settings: dog, MDCK-MDR1
[1] = target: human Arginine Vasopressin Receptor 1a (AVPR1a) (Homo sapiens (Human), UniProt P37288); assay: Vasopressin V1A receptor antagonist assay (AVP-evoked calcium, FLIPR, CHO-AVPR1a cells); format: cell-based; settings: read-out: V1a IC50
Chain of human Arginine Vasopressin Receptor 1a (AVPR1a) (P37288 whole entry): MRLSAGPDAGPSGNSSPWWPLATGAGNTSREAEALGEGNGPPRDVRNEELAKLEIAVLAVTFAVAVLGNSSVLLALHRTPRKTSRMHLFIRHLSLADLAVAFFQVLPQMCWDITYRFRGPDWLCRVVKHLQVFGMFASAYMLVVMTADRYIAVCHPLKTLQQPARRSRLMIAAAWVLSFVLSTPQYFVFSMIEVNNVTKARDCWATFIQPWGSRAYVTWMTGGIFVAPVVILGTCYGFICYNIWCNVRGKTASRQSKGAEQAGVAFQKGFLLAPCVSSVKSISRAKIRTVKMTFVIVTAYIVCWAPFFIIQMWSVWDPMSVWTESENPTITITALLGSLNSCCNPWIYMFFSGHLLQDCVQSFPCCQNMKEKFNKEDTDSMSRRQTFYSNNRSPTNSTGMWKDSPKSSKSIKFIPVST
Method in brief: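 Antagonism measured as reduction of AVP (EC80, set each assay day) calcium response on FLIPR in dye-loaded CHO-AVPR1a cells. Compounds, 3 μM top in 10-point 1:3 dilution, in duplicate, added 15 min before agonist at 37° C.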

[2] = target: human Arginine Vasopressin Receptor V2 (AVPR2) (Homo sapiens (Human), UniProt P30518); assay: Vasopressin V2 receptor antagonist assay (cAMP TR-FRET, 1321N1 cells); format: cell-based
Chain of human Arginine Vasopressin Receptor V2 (AVPR2) (P30518 whole entry): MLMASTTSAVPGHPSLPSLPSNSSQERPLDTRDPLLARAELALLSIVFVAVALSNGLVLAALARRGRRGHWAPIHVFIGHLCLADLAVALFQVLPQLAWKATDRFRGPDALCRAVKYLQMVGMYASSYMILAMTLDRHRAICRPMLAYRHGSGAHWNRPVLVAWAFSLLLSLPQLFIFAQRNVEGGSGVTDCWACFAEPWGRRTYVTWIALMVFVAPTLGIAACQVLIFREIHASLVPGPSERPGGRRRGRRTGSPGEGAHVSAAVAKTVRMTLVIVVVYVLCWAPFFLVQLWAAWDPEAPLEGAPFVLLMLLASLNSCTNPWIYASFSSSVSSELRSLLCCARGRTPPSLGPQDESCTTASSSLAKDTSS
Method: The purpose of the assay was to determine the inhibitory effect of synthesized compounds on the Vasopressin receptor 2. […] Arginine Vasopressin (AVP) evokes an increase in intracellular cAMP in these cells which is measured in a TR-FRET assay using a Europium cAMP tracer and ULight labelled antibody reagents contained in a LANCE Ultra cAMP kit (Perkin Elmer #TRF0263). […] Test compounds were assessed for their ability to affect the magnitude of the response to AVP, with antagonists showing a concentration-dependent decrease in the AVP-mediated reduction in TR-FRET signal.
cAMPZen V2 assay ready cells were thawed at 37° C. and resuspended directly from frozen in 9 ml growth medium consisting of DMEM supplemented with 10% v/v fetal bovine serum, 1× non-essential amino acids, and 1 mM sodium pyruvate. Cells were spun at 1000 rpm for 3 minutes and the supernatant was carefully removed and discarded. The pellet was resuspended in 5 ml stimulation buffer and the cell density determined using the Vi-Cell automated cell counter. The cell suspension was diluted to a 0.2×10^6/ml suspension ready for plating. […] Stimulation buffer consisted of HBSS (+Ca/+Mg) supplemented with 5 mM HEPES, 0.1% BSA stabiliser and 0.5 mM IBMX.
At the start of each assay day the potency of AVP was assessed and an EC80 concentration determined for subsequent compound profiling. Assays were performed by first an addition of 2.5 μl of control or test compound at 4× final concentration in stimulation buffer followed by 2.5 μl of AVP at 4× final concentration in stimulation buffer. After a 1 hour reaction, detection reagents were added by first an addition of 5 μl EU-cAMP tracer, followed by 5 μl ULight-anti-cAMP both diluted as per the manufacturer's instructions. […] For compound profiling, test compounds were dispensed by the Labcyte Echo (10-point curve, 1:3 dilutions) in a target 0.1 μl volume then diluted 750-fold in stimulation buffer containing 3% DMSO prior to addition to the cells. At the end of the incubation period, 2.5 μl of AVP in stimulation buffer was added at the previously determined EC80 concentration.

[3] = target: human Oxytocin Receptor (hOTR) (Homo sapiens (Human), UniProt P30559); assay: Oxytocin receptor antagonist assay (oxytocin-evoked calcium, FLIPR, CHEM-1-hOTR cells); format: cell-based; settings: read-out: OT IC50
Chain of human Oxytocin Receptor (hOTR) (P30559 whole entry): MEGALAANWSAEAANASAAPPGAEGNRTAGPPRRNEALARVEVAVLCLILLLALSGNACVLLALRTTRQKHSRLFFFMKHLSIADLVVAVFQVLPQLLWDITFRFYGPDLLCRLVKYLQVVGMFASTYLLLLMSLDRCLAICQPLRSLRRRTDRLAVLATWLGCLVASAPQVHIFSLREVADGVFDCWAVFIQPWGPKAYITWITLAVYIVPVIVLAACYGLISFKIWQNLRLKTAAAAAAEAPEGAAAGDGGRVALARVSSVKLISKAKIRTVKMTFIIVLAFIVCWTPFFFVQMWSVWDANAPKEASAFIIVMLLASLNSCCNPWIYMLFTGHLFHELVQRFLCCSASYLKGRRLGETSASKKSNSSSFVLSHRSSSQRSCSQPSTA
Method in brief: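 Oxytocin-evoked intracellular calcium rise measured by FLIPR^TETRA fluorescence (Calcium-6 dye, 3 min read) in CHEM-1-hOTR cells. Test compounds, 10-point 1:3 dilutions, were added 15 min at 37 °C before an EC80 oxytocin challenge (EC80 set each assay day); buffer HBSS with 20 mM HEPES.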

MDR1-MDCK cells = assay: MDR1-MDCK effective efflux assay (Transwell, 10 μM, 1 hour), MDR1-MDCK cells; format: in vitro ADME; settings: MDCK-MDR1
Method in brief: (§1)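 Wild-type and MDR1-MDCK monolayers cultured 3 days were dosed with compound at 10 μM (0.1% DMSO) in HBSS/25 mM HEPES pH 7.4, in both A>B and B>A directions, for 1 h at 37 °C. Samples were quantified by LC-MS/MS to give Papp and efflux ratio. Effective efflux ratio = ER(MDR1-MDCK)/ER(wild-type); Lucifer Yellow checked monolayer integrity.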

MDR1 (P-glycoprotein) = assay: as above; format: in vitro ADME; settings: dog, MDCK-MDR1, pH 7.4, Papp AB MDR1
Method in brief: as §1

[4] = test system: wild-type (WT) MDCK cells; assay: MDR1-MDCK effective efflux assay (Transwell, 10 μM, 1 hour), wild-type MDCK cells; format: in vitro ADME; settings: MDCK
Method in brief: as §1

[5] = as above; format: in vitro ADME; settings: dog, MDCK, pH 7.4, Papp AB WT
Method in brief: as §1

Structure (SMILES) | Papp A→B at 2 h (MDR1 (P-gp)) [×10⁻⁶ cm/s] | pIC50 [1] | pIC50 [2] | pIC50 [3] | MDR1 EER (MDR1-MDCK cells) | MDR1 ER (MDR1-MDCK cells) | Papp A→B at 1 h, 10 μM (MDR1 (P-glycoprotein)) [×10⁻⁶ cm/s] | WT ER [4] | Papp A→B at 1 h, 10 μM [5] [×10⁻⁶ cm/s]
CC1(N2Cc3cc(Cl)ccc3-n3c(nnc3C3CC4(C3)CN(c3ccc(F)cn3)C4)C2)CC1 [Compound No. 255, 8-chloro-1-(2-(5-fluoropyridin-2-yl)-2-azaspiro[3.3]heptan-6-yl)-5-(1-methylcyclopropyl)-5,6-dihydro-4H-benzo[f][1,2,4]triazolo[4,3-a][1,4]diazepine] | > 20 | > 7.00 | 6.30 to 7.00 | < 6.00 |  |  |  |  | 
COC(=O)N1Cc2cc(Cl)ccc2-n2c(nnc2C2CC3(C2)CN(c2ncc(F)cn2)C3)C1 [compound 92] |  | > 7.00 |  | < 6.00 | + | + | 7 to 10 | +++ | > 20
CC(=O)N1Cc2cc(Cl)ccc2-n2c(nnc2C2CC3(C2)CN(c2cnccn2)C3)C1 [compound 93] |  | > 7.00 |  | < 6.00 | + | + | < 7 | + | < 7
CC(=O)N1Cc2cc(Cl)ccc2-n2c(nnc2C2CC3(C2)CN(c2cccc(C#N)n2)C3)C1 [compound 94] |  | > 7.00 |  | < 6.00 | + | + | < 7 | + | 10 to 20
CCC(=O)N1Cc2cc(Cl)ccc2-n2c(nnc2C2CC3(C2)CN(c2ncccn2)C3)C1 [compound 107, 1-(8-chloro-1-(2-(pyrimidin-2-yl)-2-azaspiro[3.3]heptan-6-yl)-4H-benzo[f][1,2,4]triazolo[4,3-a][1,4]diazepin-5(6H)-yl)propan-1-one] |  | > 7.00 |  | < 6.00 | + | + | < 7 | + | 10 to 20
CCC(=O)N1Cc2cc(Cl)ccc2-n2c(nnc2C2CC3(C2)CN(c2cnccn2)C3)C1 [compound 110] |  | > 7.00 |  | < 6.00 | + | + | < 7 | + | 10 to 20
CCC(=O)N1Cc2cc(Cl)ccc2-n2c(nnc2C2CC3(C2)CN(c2cccc(F)n2)C3)C1 [compound 113] |  | > 7.00 |  | < 6.00 | + | + | < 7 | +++ | > 20
O=C(C1CCC1)N1Cc2cc(Cl)ccc2-n2c(nnc2C2CC3(C2)CN(c2ccc(F)cn2)C3)C1 [compound 114] |  | > 7.00 |  | < 6.00 | + | + | < 7 | + | < 7
O=C(C(F)F)N1Cc2cc(Cl)ccc2-n2c(nnc2C2CC3(C2)CN(c2ccc(F)cn2)C3)C1 [compound 116] |  | > 7.00 |  | < 6.00 | + | + | < 7 | ++++ | > 20
CCC(=O)N1Cc2cc(Cl)ccc2-n2c(nnc2C2CC3(C2)CN(c2cccc(C#N)n2)C3)C1 [compound 125] |  | > 7.00 |  | < 6.00 | + | + | < 7 | +++ | > 20
O=C(N1Cc2cc(Cl)ccc2-n2c(nnc2C2CC3(C2)CN(c2ccc(F)cn2)C3)C1)C1(F)CC1 [compound 156] |  | > 7.00 |  | < 6.00 | ++ | + | 10 to 20 | +++ | > 20
CC1c2nnc(C3CC4(C3)CN(c3ccc(F)cn3)C4)n2-c2ccc(Cl)cc2CN1C(=O)OC1CC(F)(F)C1 (centres unmarked) [compound 193, 3,3-difluorocyclobutyl 8-chloro-1-(2-(5-fluoropyridin-2-yl)-2-azaspiro[3.3]heptan-6-yl)-4-methyl-4H-benzo[f][1,2,4]triazolo[4,3-a][1,4]diazepine-5(6H)-carboxylate] |  | > 7.00 |  | < 6.00 | +++ | +++ | > 20 | +++ | > 20
Cc1cccc(N2CC3(CC(c4nnc5n4-c4ccc(Cl)cc4CN(C4CC4)C5)C3)C2)n1 [compound 218] | > 20 | > 7.00 |  |  |  |  |  |  | 
Cc1nc(N2CC3(CC(c4nnc5n4-c4ccc(Cl)cc4CN(C4CC4)C5)C3)C2)ncc1F [compound 220] | > 20 | > 7.00 |  |  |  |  |  |  | 
Fc1ccc(N2CC3(CC(c4nnc5n4-c4ccc(Cl)cc4CN(C4CC4)C5)C3)C2)nc1 [compound 223] | > 20 | > 7.00 | > 7.00 | < 6.00 |  |  |  |  | 
Fc1cnc(N2CC3(CC(c4nnc5n4-c4ccc(Cl)cc4CN(C4CC4)C5)C3)C2)nc1 [compound 224] | > 20 | > 7.00 |  |  |  |  |  |  | 
Clc1ccc2c(c1)CN(C1CC1)Cc1nnc(C3CC4(C3)CN(c3ncccn3)C4)n1-2 [compound 225] | > 20 | > 7.00 |  |  |  |  |  |  | 
O=C(C1CC1)N1CC2(CC(c3nnc4n3-c3ccc(Cl)cc3CN(C3CC3)C4)C2)C1 [compound 226, (6-(8-chloro-5-cyclopropyl-5,6-dihydro-4H-benzo[1,2,4]triazolo[4,3-a][1,4]diazepin-1-yl)-2-azaspiro[3.3]heptan-2-yl)(cyclopropyl)methanone] | < 7 |  |  |  |  |  |  |  | 
Cc1nc(N2CC3(CC(c4nnc5n4-c4ccc(Cl)cc4CN(C)C5)C3)C2)ccc1F [compound 242] | > 20 | > 7.00 |  |  |  |  |  |  | 
Fc1ccc(N2CC3(CC(c4nnc5n4-c4ccc(Cl)cc4CN(CC(F)(F)F)C5)C3)C2)nc1 [compound 259, 8-chloro-1-(2-(5-fluoropyridin-2-yl)-2-azaspiro[3.3]heptan-6-yl)-5-(2,2,2-trifluoroethyl)-5,6-dihydro-4H-benzo[f][1,2,4]triazolo[4,3-a][1,4]diazepine] | > 20 | > 7.00 |  |  |  |  |  |  | 
